Source: article PMC7449411, “In silico discovery and biological validation of ligands of FAD synthase, a promising new antimicrobial target” (PLoS Computational Biology, 2020)
Converted amounts (≈) assume the structure as drawn.

Key:
C. diphteriae = test: MIC, resazurin broth microdilution; type: cell-based, Corynebacterium diphteriae
[1] = molecular target: T1, RFK+FMNAT CaFADS activities (Corynebacterium ammoniagenes, UniProt Q59263); test: Inhibition of the RFK+FMNAT activity of CaFADS; type: biochemical; conditions: 25 °C; for RFK+FMNAT % Res. act. 250 μM: residual activity at 250 μM of compound
T1 construct: made in house; host or cells: Escherichia coli BL21(DE3)
T1 sequence (Q59263 whole entry): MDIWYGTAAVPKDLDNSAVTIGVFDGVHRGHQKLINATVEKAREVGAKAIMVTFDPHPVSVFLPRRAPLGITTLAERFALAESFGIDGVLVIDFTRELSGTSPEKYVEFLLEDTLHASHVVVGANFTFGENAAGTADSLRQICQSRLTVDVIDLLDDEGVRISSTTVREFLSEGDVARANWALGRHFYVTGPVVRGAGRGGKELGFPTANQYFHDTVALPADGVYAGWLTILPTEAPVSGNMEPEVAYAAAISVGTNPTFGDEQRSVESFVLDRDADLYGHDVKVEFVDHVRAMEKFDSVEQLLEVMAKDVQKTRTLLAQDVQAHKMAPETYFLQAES
Description: (§1) To determine the compound’s ability to inhibit the RFK and/or the FMNAT activities of CaFADS, both enzymatic activities were quantitatively measured in the absence and presence of the compounds following previously described protocols. Reaction mixtures contained 50 μM ATP, 5 μM RF in 20 mM PIPES, pH 7.0, 0.8 mM MgCl2, when assaying the RFK activity, and 50 μM ATP, 10 μM FMN in 20 mM PIPES, pH 7.0, 10 mM MgCl2 when measuring the FMNAT reaction. Each compound was tested at 250 μM (0.5% residual final concentration of DMSO) for each of the two enzymatic reactions. The samples were pre-incubated at 25 °C, the reaction was then initiated by the addition of ∼ 40 nM CaFADS (final concentration) and allowed for 1 min. Finally, the reaction was stopped by boiling the samples for 5 min and the denatured protein was eliminated through centrifugation. The transformation of RF into FMN and FAD (RFK activity) and of FMN into FAD (FMNAT activity) was evaluated through flavins separation by HPLC (Waters), as previously described. All the experiments were performed in triplicate. To evaluate the potency of compounds as inhibitors, we took advantage of the decrease in quantum yield of fluorescence when FMN is transformed into FAD, which allows to follow such transformation in a continuous system. Measurements were carried out using a microplate reader Synergy HT multimode plate reader (Biotek) with BRAND 96-well plates pure Grade. Reaction mixtures contained 5 μM RF or FMN, and 50 μM ATP in 20 mM PIPES, pH 7.0, 10 mM MgCl2, and the inhibitor compound in a 5-250 μM concentration range (2% residual final concentration of DMSO). Reactions were initiated through addition of 0.4 μM CaFADS, being the final reaction volume 100 μL. Flavin fluorescence (excitation at 440 nm and emission at 530 nm) was registered at 25 °C, every 50 s during 15 min. The fluorescence change per time unit (ΔF/Δt) was calculated as the slope of the resulting fluorescence decays recorded between 0 and 6 min (linear decay of the fluorescence). Controls which contained the reaction mixture without the enzyme and without any potential CaFADS inhibitory compound were included in the assay and referred as the 0% and 100% of enzymatic activity, respectively. IC50 was calculated as the concentration of compound required for a 50% inhibition of the enzymatic activity.

Mycobacteriumspecies = test: MIC against Mycobacterium species (S5 Fig legend); type: cell-based
M. tuberculosis = test: MIC, resazurin broth microdilution; type: cell-based, Mycobacterium tuberculosis; conditions: for MIC: M. tuberculosis, media 7H9G-ADC; for MIC (μM) M. tuberculosis: Table 3
M. smegmatis = test: MIC, resazurin broth microdilution; type: cell-based, Mycobacterium smegmatis; conditions: media 7H9G-ADC
S. thyphimurium = test: MIC, resazurin broth microdilution; type: cell-based, Salmonella thyphimurium; conditions: media MH
P. aeruginosa = test: MIC, resazurin broth microdilution; type: cell-based, Pseudomonas aeruginosa; conditions: media MH
E. coli = test: MIC, resazurin broth microdilution; type: cell-based, Escherichia coli; conditions: media LB
C. ammoniagenes = test: MIC, resazurin broth microdilution; type: cell-based, Corynebacterium ammoniagenes; conditions: for MIC: C. ammoniagenes; for MIC C. ammoniagenes: S5 Fig legend, medium not stated; for MIC (μM) C. ammoniagenes: Table 3
S. pneumoniae = test: MIC, resazurin broth microdilution; type: cell-based, Streptococcus pneumoniae
A549 = test: MTT cytotoxicity assay; type: cell-based; conditions: 24 h; for IC50: 4-512 μM range, read-out: IC50 (concentration causing 50% inhibition of cellular viability); for concentration range with moderate cytotoxicity: complete viability at lower concentrations
Description: (§2) The (4,5-dimethylthiazol-2-yl)-2,5-diphenyl tetrazolium bromide (MTT) assay was used to determine the effect of the compounds in cell growth and viability of HeLa (ATCC CCL-2) and A549 (ATCC CCL-185) eukaryotic cell lines. Both cell lines were routinely cultured in high-glucose DMEM (Lonza) supplemented with 10% fetal bovine serum, 4 mM glutamine GlutaMAX™ (Gibco) and 1x non-essential amino acids (Gibco), under 5% CO2 at 37 °C in a humidified atmosphere. For the MTT assay, cells were initially seeded in 96-well flat-bottom plates at a density of 10^4 cells per well and cultured for 24 h. Cultures were routinely tested for mycoplasma presence. The compounds were dissolved in fresh culture medium, added in a 4-512 μM concentration range (1% DMSO final concentration), and incubated with the cells for 24 h. Finally, formazan crystals were dissolved with pure DMSO and MTT absorbance was measured at 570 and 650 nm. Untreated cells were included as control of 100% viability. Assays were done in quadruplicate.

HeLa = test: MTT cytotoxicity assay; type: cell-based; conditions: 24 h; for IC50: 4-512 μM range, read-out: IC50 (concentration causing 50% inhibition of cellular viability); for concentration range with moderate cytotoxicity: complete viability at lower concentrations
Description: as §2

C. glutamicum = test: MIC, resazurin broth microdilution; type: cell-based, Corynebacterium glutamicum; conditions: media BHI
S. aureus = test: MIC, resazurin broth microdilution; type: cell-based, Staphylococcus aureus; conditions: media MH
L. monocytogenes = test: MIC, resazurin broth microdilution; type: cell-based, Listeria monocytogenes; conditions: media BHI
FMNAT activity of CaFADS = molecular target: T2, FMNAT activity of CaFADS (Corynebacterium ammoniagenes, UniProt Q59263); test: Inhibition of the FMNAT activity of CaFADS; type: biochemical; conditions: 25 °C; for FMNAT % Res. act. 250 μM: residual activity at 250 μM of compound
T2 construct: made in house; host or cells: Escherichia coli BL21(DE3)
T2 sequence (Q59263 whole entry): as above
Description: as §1

CaFADS = molecular target: T3, CaFADS (Corynebacterium ammoniagenes, UniProt Q59263); test: Differential scanning fluorescence (thermal denaturation) binding to CaFADS; conditions: for Tm shift of CaFADS thermal denaturation: 2 μM CaFADS, compound up to 250 μM; for Kd: from differential scanning fluorescence data fitted to Eq 2, 20 mM PIPES pH 7.0, 10 mM MgCl2, 2% DMSO, n = 3, mean ± SD
T3 construct: made in house; host or cells: Escherichia coli BL21(DE3)
T3 sequence (Q59263 whole entry): as above
Description: Interaction of compounds with CaFADS was evaluated using fluorescence thermal denaturation, on the bases of the shifts in denaturation midpoints of thermal curves of the protein [65]. Denaturations were performed in a Stratagene Agilent Mx3005p qPCR instrument (Santa Clara, US) following SYPR Orange (ThermoFisher Scientific) emission fluorescence (excitation at 492 nm and emission at 610 nm), which greatly increases when this probe binds to protein hydrophobic regions becoming solvent exposed upon thermal unfolding. Solutions containing 2 μM CaFADS with the studied compound in an increasing 5-250 μM concentration range (2% residual final concentration of DMSO) and 5xSYPR Orange in 20 mM PIPES pH 7.0, 10 mM MgCl2, with a 100 μL total volume were dispensed into 96-well microplates (BRAND 96-well plates pure grade™). After an initial 1 min incubation at 25 °C within the equipment, unfolding curves were registered from 25 to 100 °C at 1 °C·min^−1. Control experiments with CaFADS samples with/without DMSO were routinely performed in each microplate. For those compounds shifting midpoint denaturation temperature, Tm, the dissociation constant, Kd, was predicted by fitting the data to the equation [66] ΔTm/Tm=NRTm0/ΔH0ln(1+[L]/Kd), (2) which estimates the extent of the ligand-induced protein stabilization/destabilization. ΔTm=|Tm-Tm0| with Tm0 and Tm being the midpoint denaturation temperatures in the absence and the presence of ligand, respectively, and ΔH0 the unfolding enthalpy of the protein in the absence of ligand.

Bacillus spp. = test: MIC, resazurin broth microdilution; type: cell-based, Bacillus sp.; conditions: media MH

SMILES	MIC (C. diphteriae; media BHI) [µM]	MIC (C. diphteriae; media MH) [µM]	RFK+FMNAT % Res. act. 250 μM [1] [%]	MIC Mycobacterium species (Mycobacteriumspecies)	MIC (M. tuberculosis) [µM]	MIC (μM) M. tuberculosis (M. tuberculosis) [µM]	MIC (M. smegmatis) [µM]	MIC (S. thyphimurium) [µM]	MIC (P. aeruginosa) [µM]	MIC (E. coli) [µM]	MIC (C. ammoniagenes; media BHI) [µM]	MIC (C. ammoniagenes; media MH) [µM]	MIC (C. ammoniagenes; media MH+DFO) [µM]	MIC (C. ammoniagenes; media MH+DIP) [µM]	MIC (C. ammoniagenes; media MH+DIP+DFO) [µM]	MIC C. ammoniagenes (C. ammoniagenes)	MIC (μM) C. ammoniagenes (C. ammoniagenes) [µM]	MIC (C. glutamicum) [µM]	MIC (S. aureus) [µM]	MIC (L. monocytogenes) [µM]	other results
COc1ccc(C(NC(=O)CCC(NC(=O)OCc2ccccc2)C(=O)O)c2ccc(OC)cc2)cc1 (stereo not drawn) [Compound C2, 2-{[(benzyloxy)carbonyl]amino}-5-{[di(4-methoxyphenyl)methyl]amino}-5-oxopentanoic acid]	64 (≈ 32.4 µg/mL)	128 (≈ 64.8 µg/mL)	88 ± 2	lower than 256 μM	256 (≈ 130 µg/mL)	256 (≈ 130 µg/mL)	256 (≈ 130 µg/mL)	> 256	> 256	> 64	64 (≈ 32.4 µg/mL)	128 (≈ 64.8 µg/mL)	128 (≈ 64.8 µg/mL)	128 (≈ 64.8 µg/mL)	64 (≈ 32.4 µg/mL)	64 µM (≈ 32.4 µg/mL)	128 (≈ 64.8 µg/mL)	16 (≈ 8.1 µg/mL)	128 (≈ 64.8 µg/mL)	> 64	MIC (S. pneumoniae; media BHI): 256 µM (≈ 130 µg/mL); MIC (S. pneumoniae; media MH): > 256 µM; IC50 (A549): > 512 µM; IC50 (HeLa): > 512 µM; FMNAT % Res. act. 250 μM (FMNAT activity of CaFADS): >95%
CC(C)c1ccc(NC(=S)NNC(=O)NC(=O)c2csc([N+](=O)[O-])c2)cc1 [Compound C6, N-({2-[(4-isopropylanilino)carbothioyl]hydrazino}carbonyl)-5-nitrothiophene-3-carboxamide]	> 64	128 (≈ 52.2 µg/mL)	57 ± 3	lower than 256 μM	–	128 (≈ 52.2 µg/mL)	> 256	> 256	> 256	> 64	> 64	128 (≈ 52.2 µg/mL)	128 (≈ 52.2 µg/mL)	128 (≈ 52.2 µg/mL)	128 (≈ 52.2 µg/mL)	lower than 256 μM	128 (≈ 52.2 µg/mL)	> 64	> 256	> 64	Tm shift of CaFADS thermal denaturation (CaFADS): more than 3 degrees; Kd (CaFADS): 41 ± 3 µM; MIC (S. pneumoniae; media BHI): > 256 µM; MIC (S. pneumoniae; media MH): 64 µM (≈ 26.1 µg/mL); IC50 (A549): > 512 µM; IC50 (HeLa): > 512 µM; FMNAT % Res. act. 250 μM (FMNAT activity of CaFADS): 48 ± 6%
O=C(O)c1ccccc1C(=O)NC1CCN(c2nccc(C(F)(F)F)n2)CC1 [Compound C18, 2-[({1-[4-(trifluoromethyl)pyrimidin-2-yl]piperidin-4-yl}amino)carbonyl]benzoic acid]	–	32 (≈ 12.6 µg/mL)	–	–	> 256	–	–	> 256	> 256	> 256	–	> 256	–	> 256	256 (≈ 101 µg/mL)	–	–	> 256	256 (≈ 101 µg/mL)	64 (≈ 25.2 µg/mL)	IC50 ([1]; kinetic measurements, 20 mM PIPES pH 7.0, 10 mM MgCl2, 2% DMSO): 147 ± 4 µM; Tm shift of CaFADS thermal denaturation (CaFADS): shifted it to lower values; Kd (CaFADS): 3 ± 0.9 µM; concentration range with moderate cytotoxicity (A549): 256 to 512 µM; concentration range with moderate cytotoxicity (HeLa): 256 to 512 µM; IC50 (FMNAT activity of CaFADS; kinetic measurements, 5 μM FMN, 50 μM ATP, 20 mM PIPES pH 7.0, 10 mM MgCl2, 2% DMSO): 143 ± 4 µM
CC1(C)c2ccccc2-n2c1cc1oc(=O)cc(O)c1c2=O [Compound C27, 4-hydroxy-11,11-dimethyl-5,11-dihydro-2H-pyrano[2',3':4,5]pyrido[1,2-a]indole-2,5-dione]	–	64 (≈ 18.9 µg/mL)	–	lower than 256 μM	256 (≈ 75.6 µg/mL)	256 (≈ 75.6 µg/mL)	–	> 256	> 256	> 256	–	128 (≈ 37.8 µg/mL)	128 (≈ 37.8 µg/mL)	64 (≈ 18.9 µg/mL)	128 (≈ 37.8 µg/mL)	lower than 256 μM	128 (≈ 37.8 µg/mL)	64 (≈ 18.9 µg/mL)	64 (≈ 18.9 µg/mL)	64 (≈ 18.9 µg/mL)	concentration range with moderate cytotoxicity (A549): 256 to 512 µM; concentration range with moderate cytotoxicity (HeLa): 256 to 512 µM; MIC (Bacillus spp.): 32 µM (≈ 9.45 µg/mL)
